Results from ChEMBL document CHEMBL1138574, “Regioselective synthesis and stereochemical structure of anti-tumor active dispiro[3H-indole-3,2'-pyrrolidine-3',3''-piperidine]-2(1H),4''-diones” (2009).

Experiments:
Assay type in all cases: functional
[1] = test system: HOP-92; test: Antitumor activity against human HOP92 cells assessed as cell growth at 10 uM after 48 hrs by sulforhodamine B assay; conditions: HOP-92, 48 h, read-out: Activity
[2] = test system: IGROV-1; test: Antitumor activity against human IGROV1 cells assessed as cell growth at 10 uM after 48 hrs by sulforhodamine B assay; conditions: IGROV-1, 48 h, read-out: Activity
[3] = test system: Rattus norvegicus; test: Antiinflammatory activity in Wister albino rat assessed as inhibition of carrageenan-induced paw oedema at 50 mg/kg, ip administered 1 hr before carrageenan challenge measured after 1 hr of induction of inflammation relative to control; conditions: route intraperitoneal
[4] = test system: M14; test: Antitumor activity against human M14 cells assessed as cell growth at 10 uM after 48 hrs by sulforhodamine B assay; conditions: M14, 48 h, read-out: Activity
[5] = test system: OVCAR-3; test: Antitumor activity against human OVCAR-3 cells assessed as cell growth at 10 uM after 48 hrs by sulforhodamine B assay; conditions: OVCAR-3, 48 h, read-out: Activity
[6] = test system: U-251; test: Antitumor activity against human U251 cells assessed as cell growth at 10 uM after 48 hrs by sulforhodamine B assay; conditions: U-251, 48 h, read-out: Activity
[7] = test system: MCF7; test: Antitumor activity against human MCF7 cells assessed as cell growth at 10 uM after 48 hrs by sulforhodamine B assay; conditions: MCF7, 48 h, read-out: Activity
[8] = test system: CCRF-CEM; test: Antitumor activity against human CCRF-CEM cells assessed as cell growth at 10 uM after 48 hrs by sulforhodamine B assay; conditions: read-out: Activity
[9] = test system: COLO 205; test: Antitumor activity against human COLO205 cells assessed as cell growth at 10 uM after 48 hrs by sulforhodamine B assay; conditions: COLO 205, 48 h, read-out: Activity
[10] = test system: NCI-H322M; test: Antitumor activity against human NCI-H322M cells assessed as cell growth at 10 uM after 48 hrs by sulforhodamine B assay; conditions: read-out: Activity
[11] = test system: MDA-MB-231; test: Antitumor activity against human MDA-MB-231 cells assessed as cell growth at 10 uM after 48 hrs by sulforhodamine B assay; conditions: MDA-MB-231, 48 h, read-out: Activity
[12] = test system: CAKI-1; test: Antitumor activity against human Caki1 cells assessed as cell growth at 10 uM after 48 hrs by sulforhodamine B assay; conditions: CAKI-1, 48 h, read-out: Activity
[13] = test system: MDA-MB-435; test: Antitumor activity against human MDA-MB-435 cells assessed as cell growth at 10 uM after 48 hrs by sulforhodamine B assay; conditions: MDA-MB-435, 48 h, read-out: Activity
[14] = test system: NCI-H522; test: Antitumor activity against human NCI-H522 cells assessed as cell growth at 10 uM after 48 hrs by sulforhodamine B assay; conditions: NCI-H522, 48 h, read-out: Activity
[15] = test system: BT-549; test: Antitumor activity against human BT549 cells assessed as cell growth at 10 uM after 48 hrs by sulforhodamine B assay; conditions: BT-549, 48 h, read-out: Activity
[16] = test system: 786-0; test: Antitumor activity against human 786-0 cells assessed as cell growth at 10 uM after 48 hrs by sulforhodamine B assay; conditions: 786-0, 48 h, read-out: Activity
[17] = test system: Rattus norvegicus; test: Antiinflammatory activity in Wister albino rat assessed as inhibition of carrageenan-induced paw oedema at 50 mg/kg, ip administered 1 hr before carrageenan challenge measured after 4 hrs of induction of inflammation relative to indomethacin; conditions: route intraperitoneal
[18] = test system: A498; test: Antitumor activity against human A498 cells assessed as cell growth at 10 uM after 48 hrs by sulforhodamine B assay; conditions: A498, 48 h, read-out: Activity
[19] = test system: SF-539; test: Antitumor activity against human SF539 cells assessed as cell growth at 10 uM after 48 hrs by sulforhodamine B assay; conditions: SF-539, 48 h, read-out: Activity
[20] = test system: NCI-H226; test: Antitumor activity against human NCI-H226 cells assessed as cell growth at 10 uM after 48 hrs by sulforhodamine B assay; conditions: NCI-H226, 48 h, read-out: Activity
[21] = test system: Rattus norvegicus; test: Antiinflammatory activity in Wister albino rat assessed as inhibition of carrageenan-induced paw oedema at 50 mg/kg, ip administered 1 hr before carrageenan challenge measured after 3 hrs of induction of inflammation relative to control; conditions: route intraperitoneal
[22] = test system: SK-MEL-28; test: Antitumor activity against human SK-MEL-28 cells assessed as cell growth at 10 uM after 48 hrs by sulforhodamine B assay; conditions: SK-MEL-28, 48 h, read-out: Activity
[23] = Antitumor activity against human Hs 578T cells assessed as cell growth at 10 uM after 48 hrs by sulforhodamine B assay; conditions: read-out: Activity
[24] = test system: Rattus norvegicus; test: Antiinflammatory activity in Wister albino rat assessed as inhibition of carrageenan-induced paw oedema at 50 mg/kg, ip administered 1 hr before carrageenan challenge measured after 4 hrs of induction of inflammation relative to control; conditions: route intraperitoneal
[25] = test system: Rattus norvegicus; test: Antiinflammatory activity in Wister albino rat assessed as inhibition of carrageenan-induced paw oedema at 50 mg/kg, ip administered 1 hr before carrageenan challenge measured after 2 hrs of induction of inflammation relative to control; conditions: route intraperitoneal
[26] = test system: HOP-62; test: Antitumor activity against human HOP62 cells assessed as cell growth at 10 uM after 48 hrs by sulforhodamine B assay; conditions: HOP-62, 48 h, read-out: Activity
[27] = test system: Malme-3M; test: Antitumor activity against human MALME-3M cells assessed as cell growth at 10 uM after 48 hrs by sulforhodamine B assay; conditions: read-out: Activity
[28] = test system: A549; test: Antitumor activity against human A549 cells assessed as cell growth at 10 uM after 48 hrs by sulforhodamine B assay; conditions: A549, 48 h, read-out: Activity
[29] = test system: HCT-15; test: Antitumor activity against human HCT15 cells assessed as cell growth at 10 uM after 48 hrs by sulforhodamine B assay; conditions: HCT-15, 48 h, read-out: Activity
[30] = test system: SNB-75; test: Antitumor activity against human SNB75 cells assessed as cell growth at 10 uM after 48 hrs by sulforhodamine B assay; conditions: SNB-75, 48 h, read-out: Activity
[31] = test system: NCI-H460; test: Antitumor activity against human NCI-H460 cells assessed as cell growth at 10 uM after 48 hrs by sulforhodamine B assay; conditions: NCI-H460, 48 h, read-out: Activity
[32] = test system: SNB-19; test: Antitumor activity against human SNB19 cells assessed as cell growth at 10 uM after 48 hrs by sulforhodamine B assay; conditions: SNB-19, 48 h, read-out: Activity
[33] = test system: OVCAR-5; test: Antitumor activity against human OVCAR5 cells assessed as cell growth at 10 uM after 48 hrs by sulforhodamine B assay; conditions: OVCAR-5, 48 h, read-out: Activity
[34] = test system: KM12; test: Antitumor activity against human KM12 cells assessed as cell growth at 10 uM after 48 hrs by sulforhodamine B assay; conditions: KM12, 48 h, read-out: Activity
[35] = test system: NCI-H23; test: Antitumor activity against human NCI-H23 cells assessed as cell growth at 10 uM after 48 hrs by sulforhodamine B assay; conditions: NCI-H23, 48 h, read-out: Activity

Compound | growth at 10 µM [1] [%] | growth at 10 µM [2] [%] | inhibition in vivo at 50 mg/kg [3] [%] | growth at 10 µM [4] [%] | growth at 10 µM [5] [%] | growth at 10 µM [6] [%] | growth at 10 µM [7] [%] | growth at 10 µM [8] [%] | growth at 10 µM [9] [%] | growth at 10 µM [10] [%] | growth at 10 µM [11] [%] | growth at 10 µM [12] [%] | growth at 10 µM [13] [%] | growth at 10 µM [14] [%] | growth at 10 µM [15] [%] | growth at 10 µM [16] [%] | inhibition in vivo at 50 mg/kg [17] [%] | growth at 10 µM [18] [%] | growth at 10 µM [19] [%] | growth at 10 µM [20] [%] | other results
CN1C/C(=C\c2ccc(-c3cccs3)cc2)C(=O)[C@]2(C1)[C@@H](c1ccc(-c3cccs3)cc1)CN(C)[C@@]21C(=O)N(C)c2ccccc21 | 41.1 | 81.4 | 84.7 | 58.5 | 33.6 | 62.8 | 50.4 | 56.4 | 69 | 75 | 52.4 | 57.2 | 40.6 | 49.4 | 79.7 | 65.8 | 124 | 46.5 | 75.4 | 58 | inhibition in vivo at 50 mg/kg [21]: 73.9%; growth at 10 µM [22]: 80%; growth at 10 µM [23]: 79.3%; inhibition in vivo at 50 mg/kg [24]: 69.8%; inhibition in vivo at 50 mg/kg [25]: 68.3%; growth at 10 µM [26]: 58.8%; growth at 10 µM [27]: 76.4%; growth at 10 µM [28]: 58%; growth at 10 µM [29]: 62.1%; growth at 10 µM [30]: 64.5%; growth at 10 µM [31]: 52.1%; growth at 10 µM [32]: 65.3%; growth at 10 µM [33]: 103%; growth at 10 µM [34]: 45.2%; growth at 10 µM [35]: 26.1%
COc1ccc(/C=C2\CN(C)C[C@@]3(C2=O)[C@@H](c2ccccc2)CN(C)[C@@]32C(=O)Nc3ccccc32)cc1 | 46.7 | 79.4 | 80.1 | 55.6 | 50.3 | 52.1 | 30.9 | 45.4 | 67.4 | 79.7 | 59.4 | 54.3 | 60.7 | 50.2 | 56.3 | 57.2 | 139 | 32.5 | 74 | 63 | inhibition in vivo at 50 mg/kg [21]: 76.5%; growth at 10 µM [22]: 76.3%; growth at 10 µM [23]: 74.7%; inhibition in vivo at 50 mg/kg [24]: 78.7%; inhibition in vivo at 50 mg/kg [25]: 76.4%; growth at 10 µM [26]: 69.9%; growth at 10 µM [27]: 58.7%; growth at 10 µM [28]: 44.4%; growth at 10 µM [29]: 50.8%; growth at 10 µM [30]: 59.4%; growth at 10 µM [31]: 52.3%; growth at 10 µM [32]: 61.6%; growth at 10 µM [33]: 92.5%; growth at 10 µM [34]: 37.7%; growth at 10 µM [35]: 50.4%
CN1C/C(=C\c2ccc(Cl)cc2)C(=O)[C@]2(C1)[C@@H](c1ccc(Cl)cc1)CN(C)[C@@]21C(=O)N(C)c2ccccc21 | 61.6 | 92.1 | 82.3 | 77.8 | 60.5 | 68.6 | 86.4 | 31.5 | 99.6 | 79.1 | 70.4 | 56.6 | 87.8 | 56.4 | 80.3 | 73.9 | 80.9 | 69.4 | 78.1 | 58.6 | inhibition in vivo at 50 mg/kg [21]: 44.5%; growth at 10 µM [22]: 104%; growth at 10 µM [23]: 97.3%; inhibition in vivo at 50 mg/kg [24]: 45.7%; inhibition in vivo at 50 mg/kg [25]: 62.2%; growth at 10 µM [26]: 71%; growth at 10 µM [27]: 73.5%; growth at 10 µM [28]: 70%; growth at 10 µM [29]: 76.2%; growth at 10 µM [30]: 65.2%; growth at 10 µM [31]: 71.5%; growth at 10 µM [32]: 77.3%; growth at 10 µM [33]: 87.7%; growth at 10 µM [34]: 78.7%; growth at 10 µM [35]: 33.9%
CN1C/C(=C\c2ccc(Cl)cc2)C(=O)[C@]2(C1)[C@@H](c1ccc(Cl)cc1)CN(C)[C@@]21C(=O)Nc2ccccc21 | 56.2 | 81.8 | 83.1 | 78.3 | 48.4 | 64.8 | 44.9 | 51.3 | 92.7 | 68.7 | 74.9 | 45.8 | 61.1 | 59.8 | 63.9 | 71.8 | 74.7 | 55.3 | 83.3 | 64.4 | inhibition in vivo at 50 mg/kg [21]: 49.6%; growth at 10 µM [22]: 101%; growth at 10 µM [23]: 79.7%; inhibition in vivo at 50 mg/kg [24]: 42.2%; inhibition in vivo at 50 mg/kg [25]: 63%; growth at 10 µM [26]: 73.6%; growth at 10 µM [27]: 91.9%; growth at 10 µM [28]: 62.4%; growth at 10 µM [29]: 68.5%; growth at 10 µM [30]: 56.7%; growth at 10 µM [31]: 66.7%; growth at 10 µM [32]: 76.5%; growth at 10 µM [33]: 94.2%; growth at 10 µM [34]: 64.2%; growth at 10 µM [35]: 44.8%
